# Assay results as given in patent US20100144872A1, “New Methylenebisphenyl Compounds Useful in the Treatment of Inflammation” (Biolipox AB, priority 2007, published 2010).
# Biological target: T1, Recombinant human LTC4 synthase (Homo sapiens, UniProt Q16873)
# T1 construct: made in house; host or cells: Pichia pastoris ('Piccia pastoralis' [sic])
# T1 sequence (Q16873 1-150): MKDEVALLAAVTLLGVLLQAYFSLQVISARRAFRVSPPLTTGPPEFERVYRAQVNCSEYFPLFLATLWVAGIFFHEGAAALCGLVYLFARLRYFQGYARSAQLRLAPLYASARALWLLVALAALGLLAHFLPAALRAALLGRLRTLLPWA
# Test: LTC4 synthase assay (conversion of LTA4 methyl ester to LTC4 methyl ester, HPLC)
# Type: biochemical
# Conditions: biological test described above; PBS pH 7.4 with 5 mM GSH, substrate LTA4 methyl ester
# Procedure: In the assay LTC4 synthase catalyses the reaction where the substrate LTA4 methyl ester is converted to LTC4 methyl ester. Recombinant human LTC4 synthase is expressed in Piccia pastoralis and the purified enzyme is dissolved in 25 mM Tris-buffer pH 7.8 and stored at −20° C. The assay is performed in phosphate buffered saline (PBS) pH 7.4, supplemented with 5 mM glutathione (GSH). The reaction is terminated by addition of acetonitrile/MeOH/acetic acid (50/50/1). The assay is performed at it in 96-well plates. Analysis of the formed LTC4 methyl ester is performed with reversed phase HPLC (Waters 2795 utilizing an Onyx Monolithic C18 column). The mobile phase consists of acetonitrile/MeOH/H2O (32.5/30/37.5) with 1% acetic acid pH adjusted with NH3 to pH 5.6, and absorbance measured at 280 nm with a Waters 2487 UV-detector.
# The following is added chronologically to each well: • 1. 50 μl assay buffer, PBS with 5 mM GSH. • 2. 0.5 μl inhibitor in DMSO. • 3. 2 μl LTC4 synthase in PBS. The total protein concentration in this solution is 0.025 mg/ml. Incubation of the plate at room temperature for 10 minutes. • 4. 0.5 μl LTA4 methyl ester. Incubation of the plate at it for 1 min. • 5. 50 μl stop solution. 80 μl of the incubation mixture is analysed with HPLC.
row,IC50,Compound
1,1.3 µM,"O=C(O)c1cc(Cc2ccc(NS(=O)(=O)c3ccccc3C(F)(F)F)c(C(=O)O)c2)ccc1NS(=O)(=O)c1ccccc1C(F)(F)F [Example 69, 5,5′-methylenebis(2-(2-(trifluoromethyl)phenylsulfonamido)benzoic acid)]"
2,0.7 µM,"O=C(O)c1cc(Cc2ccc(NS(=O)(=O)c3cc(C(F)(F)F)cc(C(F)(F)F)c3)c(C(=O)O)c2)ccc1NS(=O)(=O)c1cc(C(F)(F)F)cc(C(F)(F)F)c1 [Example 74, 5,5′-methylenebis(2-(3,5-bis(trifluoromethyl)-phenylsulfonamido)benzoic acid)]"
3,2.3 µM,O=C(O)c1cc(Cc2ccc(NCc3cccc(OCc4ccccc4)c3)c(C(=O)O)c2)ccc1NCc1cccc(OCc2ccccc2)c1 [Example 93]
4,3.4 µM,"Cc1ccc(CNc2ccc(Cc3ccc(NCc4ccc(C)cc4)c(C(=O)O)c3)cc2C(=O)O)cc1 [Example 89, 5-(3-Carboxy-4-(4-methyl-benzylamino)-benzyl)-2-(4-methyl-benzylamino)-benzoic acid]"
5,2.8 µM,"CC(=O)Nc1ccc(S(=O)(=O)Nc2ccc(Cc3ccc(NS(=O)(=O)c4ccc(NC(C)=O)c(Cl)c4)c(C(=O)O)c3)cc2C(=O)O)cc1Cl [Example 67, 5,5′-methylenebis(2-(4-acetamido-3-chlorophenylsulfonamido)benzoic acid)]"

# The next lines start with the compound.
row,Compound,IC50
1,"O=C(O)c1ccccc1Nc1ccc(Cc2ccc(Nc3ccccc3C(=O)O)c(C(=O)O)c2)cc1C(=O)O [Example 9, 5,5′-methylenebis(2-(2-carboxyphenyl-amino)benzoic acid)]",3.4 µM
2,"Nc1ccc(Cc2ccc(Nc3ccc(F)c(Cl)c3)c(C(=O)O)c2)cc1C(=O)O [Example 6, 2-amino-5-(3-carboxy-4-(3-chloro-4-fluorophenylamino)benzyl)benzoic acid]",5.7 µM
3,"Nc1ccc(Cc2ccc(Nc3ccc(F)cc3)c(C(=O)O)c2)cc1C(=O)O [Example 12, 2-amino-5-(3-carboxy-4-(4-fluoro-phenylamino)benzyl)benzoic acid]",2.8 µM
4,"Nc1ccc(Cc2ccc(Nc3ccc(Br)cc3F)c(C(=O)O)c2)cc1C(=O)O [Example 8, 2-amino-5-(4-(4-bromo-2-fluorophenyl-amino)-3-carboxybenzyl)benzoic acid]",0.74 µM
5,"COc1cccc(NC(=O)Nc2ccc(Cc3ccc(NC(=O)Nc4cccc(OC)c4)c(C(=O)O)c3)cc2C(=O)O)c1 [Example 55, 5,5′-methylenebis-(2-(3-(3-methoxyphenyl)-ureido)benzoic acid)]",1.8 µM
6,"CC(C)Oc1ccc(Nc2ccc(Cc3ccc(N)c(C(=O)O)c3)cc2C(=O)O)cc1 [Example 27, 2-amino-5-(3-carboxy-4-(4-isopropoxy-phenylamino)benzyl)benzoic acid]",6.41 µM
7,"O=C(Nc1ccccc1F)Nc1ccc(Cc2ccc(NC(=O)Nc3ccccc3F)c(C(=O)O)c2)cc1C(=O)O [Example 57, 5,5′-methylenebis-(2-(3-(2-fluorophenyl)-ureido)benzoic acid)]",4 µM
8,"O=C(Nc1ccc(Cc2ccc(NC(=O)Nc3c(Cl)cccc3Cl)c(C(=O)O)c2)cc1C(=O)O)Nc1c(Cl)cccc1Cl [Example 62, 5,5′-methylenebis-(2-(3-(2,6-dichlorophenyl)-ureido)benzoic acid)]",5.8 µM
